Consider four compounds from patent US20100034903A1, “SHINYLEAF YELLOWHORN EXTRACT, METHODS FOR EXTRACTION AND USES THEREOF” (priority 2006, published 2010).

Experiment [1] deals with dementia rat model. The experiment in a line: Avoidance conditioned reflex of the dementia rat model with destructed cholinergic neuron and Meynert basal ganglia. To be noted: 0.2 g/kg, gavage. Format: in vivo. An excerpt:
The animal model of senile dementia is established pursuant to the method disclosed in “Experimental Alzheimer's Disease Animal Model with Destructed Cholinergic Neuron” (Pharmacological Experimental Methodology, Third Edition, […]). The kainic acid is a receptor agonist for the central exciting neurotransmitter glutamate, which has been widely used as a tool drug to establish the neurotoxicity model by the international community. Administration mode: gavage administration. The Piracetam-NEGPF [piracetam, […] acetamide, amide pyrrole ring (ketone)] is a brain metabolism nootropics that can protect and repair cranial nerve cells, promote the transformation of ADP into ATP in the brain and the synthesis of acetylcholine and prevent against the brain function injury caused by the physical and chemical factors, and is used in clinic for the treatment of the brain function disorder due to aging, cerebral vascular accident, traumatic brain injury, and CO poisoning.

Experiment [2] deals with mouse sleeping model by sodium pentobarbital. The experiment in a line: Sleeping hours of the mouse (sodium pentobarbital sleep model). The settings on record: mice, 0.02 g/kg gavage one hour prior to sodium pentobarbital. Format: in vivo. The text has this: Establish the animal model of sleeping of the mouse by an intraperitoneal injection of sodium pentobarbital. Administer drug by gavage administration one hour prior to the injection, so as to observe the recovery time for the righting reflex of the mouse. Administration mode: gavage administration. The telucidone (meclofenoxate, or centrofenoxine) has an exciting action on central nerve and commonly used for the clinical treatment of traumatic unconscious disturbance and children enuresis.

The subject of experiment [3] is external bladder sphincter of the rabbit. The experiment can be described thus: Bioelectricity of the extracellular electrode of the external bladder sphincter of the rabbit. It counts as in vivo. The settings on record: 0.4 mg/kg, gavage. An excerpt: Experimental method: surgically implant indwelling electrode and record the changes of the external bladder sphincter of the rabbit with a physiological recorder. Administration mode: gavage administration. The adrenomimetic drug Midodrine is a selective α1 adrenoceptor agonist, commonly used for treating of stress incontinence clinically.

For experiment [4], the system named is excised smooth muscle of bladder of rats. The experiment in a line: Relaxation of excised smooth muscle of bladder of rats. It counts as cell-based. The settings on record: rat bladder smooth muscle strips; 12 experiments. The text has this: The experimental animal strain used herein is the SPF Wistar rats. The experiment process is as follows: the rat bladder is surgically excised to prepare the strips of smooth muscle; place the smooth muscle in the thermostat nutrient solution, and then added with Shinyleaf yellowhorn extract (the refined extract from Refining Example IV, in the form of capsules) and the imipramine respectively, under the oxygen supply conditions, to observe the changes in smooth muscle.

The test system of experiment [5] is water-load mice. The experiment can be described thus: Urination frequency of water-load mice. It counts as in vivo. To be noted: imipramine 0.01 g/kg*d × 10, gavage. An excerpt: The experimental animal strains used herein are the SPF KM mice and Wistar rats. Each rat or mouse receives gavage drug administration. Shinyleaf yellowhorn extract is the refined extract from Refining Example IV, in the form of capsules. The control drug is imipramine, which has a strong anti-depression action and a weak atropine-like action, and is often used for treatment of the depression and children enuresis. The experimental method is calculating the urination frequency of mice based on the colorable reaction taking place when the dried potassium iodide and starch are mixed with the urine.

Consider `NC(=O)CN1CCCC1=O` [Piracetam-NEGPF, piracetam], for which the Latency is given as 4.6 ± 0.7 s in experiment [1] (72 h post stopping of training), 2.6 ± 0.6 s in experiment [1] (The fifth day), 7.1 ± 3.3 s in experiment [1] (The first day) and 4.4 ± 1.0 s in experiment [1] (The third day). In addition, the Positive rate in experiment [1] (72 h post stopping of training) was determined as 58.2 ± 7.4 %; in experiment [1] (The fifth day) it was 71.05 ± 8.2 %; in experiment [1] (The first day) it was 30.5 ± 12.7%; in experiment [1] (The third day), 57.6 ± 8.0 %.

Compound `CN(C)CCOC(=O)COc1ccc(Cl)cc1` [Telucidone, meclofenoxate] registered a Hour of sleep in experiment [2] of 61.2 ± 10.7 min.

In experiment [3], `COc1ccc(OC)c(C(O)CNC(=O)CN)c1` (centres unmarked) [Midodrine] registered a Frequency of 35.4 ± 11.6 times/min, a Time duration of 18.7 ± 10.3 min and a Wave amplitude of 14.9 ± 6.7 mv.

For the compound `CN(C)CCCN1c2ccccc2CCc2ccccc21` [Imipramine, imipramine], in experiment [4], the “Concentration of solution as smooth muscle shows complete relaxation” value amounted to 0.15 mg/mL. Further, the Urination frequency was 0.9 ± 0.7 times/each in experiment [5] (0.5 h), 2.9 ± 1.3 times/each in experiment [5] (1.0 h), 2.6 ± 1.5 times/each in experiment [5] (2.0 h) and 1.3 ± 0.8 times/each in experiment [5] (3.0 h).
